Reference: article PMC10058905, “Bioassay-Guided Alkaloids Isolation from Camellia sinensis and Colchicum luteum: In Silico and In Vitro Evaluations for Protease Inhibition” (Molecules, 2023)

Target: T1, Trypsin from bovine pancreas (Bos taurus, UniProt P00760)
T1 construct: gene PRSS1
T1 sequence (P00760 24-246): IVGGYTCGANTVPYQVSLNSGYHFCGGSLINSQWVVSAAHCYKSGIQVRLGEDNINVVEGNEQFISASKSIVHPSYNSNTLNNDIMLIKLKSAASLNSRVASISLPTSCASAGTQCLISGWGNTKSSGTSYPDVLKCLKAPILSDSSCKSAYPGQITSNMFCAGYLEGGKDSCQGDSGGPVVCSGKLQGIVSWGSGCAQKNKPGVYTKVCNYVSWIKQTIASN
Experiment: spectrophotometric BApNA hydrolysis assay, positive control
Type: biochemical

## O=S(=O)(F)Cc1ccccc1 [PMSF]
  IC50: 110 ± 20 µM
